Source: patent US20220402900A1, “1,2,4-OXADIAZOL-5-ONE DERIVATIVES FOR THE TREATMENT OF CANCER” (Basilea Pharmaceutica International AG, priority 2019, published 2022)

Assays:
[1] = tested on: TEAD reporter gene activity; assay: TEAD reporter gene assay (MCF7 TEAD reporter cell line); format: cell-based; conditions: Homo sapiens; TEAD luciferase reporter in MCF7 cells, 24 hours; read-out: IC50 TEAD RGA (converted)
Excerpt: A TEAD reporter cell line was purchased from BPS Bioscience (cat. no. 60618). It contains the firefly luciferase gene under control of TEAD responsive elements stably integrated into the human breast cancer MCF7 cells. In proliferating cells, a basal level of unphosphorylated YAP/TAZ resides in the nucleus and drives the TEAD-dependent expression of the luciferase reporter. The cells were cultivated as recommended by the supplier. Inhibition of TEAD reporter gene activity by experimental compounds was measured using white, clear-bottom, 96 well cell culture plates (Greiner Bio-One, cat. no. 655098). The cells were seeded at a density of 20,000 cells per well in 100 μL growth medium and the plates were incubated overnight at 37° C. with 5% CO2 prior to treatment. Experimental compounds were serially diluted in DMSO to 200× the desired final concentrations. 0.5 μL aliquots of DMSO or the test samples were then mixed into the wells and the cells were further incubated for 24 hours. Luminescence was then measured on a Synergy 4 reader (BioTek) using the ONE-Glo Luciferase Assay System (Promega, cat. no. E6120) according to the manufacturer's instructions. Relative inhibition values were calculated by normalizing the raw data using DMSO-treated cells (0% inhibition) and wells devoid of cells (100% inhibition). IC50 values were calculated by fitting concentration-response data to a sigmoidal 4-parameter logistic model.

[2] = target: T1, human TEAD2 (amino acids 217-447) (Homo sapiens, UniProt Q15562); assay: Thermal shift assay (TSA); format: binding; conditions: 3 μM recombinant TEAD2, compound 7 μM, shift vs DMSO control
T1 construct: human TEAD2 (amino acids 217-447); His-tag (N); purchased Proteros biostructures PR-0365; host or cells: E. coli
T1 sequence (Q15562 217-447): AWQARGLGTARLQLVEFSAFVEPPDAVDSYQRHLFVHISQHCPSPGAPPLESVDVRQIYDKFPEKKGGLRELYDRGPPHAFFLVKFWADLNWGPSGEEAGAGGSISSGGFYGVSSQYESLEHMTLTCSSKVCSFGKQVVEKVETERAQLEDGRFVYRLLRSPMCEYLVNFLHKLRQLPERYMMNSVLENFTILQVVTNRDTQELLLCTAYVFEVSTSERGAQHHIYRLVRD
Description: The thermal shift assay (TSA) was utilized to characterize target engagement in vitro based on ligand-dependent thermal stabilization of the protein. N-terminally His-tagged human TEAD2 (amino acids 217-447) expressed and purified from E. coli was purchased from Proteros biostructures (cat no. PR-0365). The melting reactions were performed in white, 96 well qPCR plates (Roche Diagnostics, cat. no. 04 729 692 001) in 20 mM HEPES pH 7, 100 mM NaCl in the presence of 4×SYPRO orange (Sigma, cat. no. S5692). Each well contained 3 μM recombinant TEAD2 and either DMSO (control) or experimental compounds at a final concentration of 7 μM. The total volume was 20 μL and the final DMSO concentration was 1%. The plate was sealed and analyzed in a LightCycler 480 II (Roche Diagnostics) by continuously reading the fluorescence using the 465-580 nm filter set while heating from 25° C. to 95° C. using a linear gradient of 1° C./min. Melting temperatures were determined by numerical differentiation using the LightCycler Thermal Shift Analysis software (Roche Diagnostics). The shifts in melting temperature caused by experimental compounds compared to the control are expressed as ΔTm (Table 2).

SMILES	IC50 [1] [nM]	ΔTm at 7 µM [2] [°C]
O=c1[nH]c(-c2nccnc2Nc2ccc(OC(F)(F)F)cc2)no1 [Example 3, 3-[3-[4-(trifluoromethoxy)anilino]pyrazin-2-yl]-4H-1,2,4-oxadiazol-5-one]	90	11.5
Nc1cnc(Nc2ccc(C(F)(F)F)cc2)c(-c2noc(=O)[nH]2)n1 [Example 4, 3-[6-amino-3-[4-(trifluoromethyl)anilino]pyrazin-2-yl]-4H-1,2,4-oxadiazol-5-one]	85	2
O=c1[nH]c(-c2nc(CO)cnc2Nc2ccc(C(F)(F)F)cc2)no1 [Example 6, 3-[6-(hydroxymethyl)-3-[4-(trifluoromethyl)anilino]pyrazin-2-yl]-4H-1,2,4-oxadiazol-5-one]	499	5
NCCc1cnc(Nc2ccc(C(F)(F)F)cc2)c(-c2noc(=O)[nH]2)n1 [Example 7, 3-[6-(2-aminoethyl)-3-[4-(trifluoromethyl)anilino]pyrazin-2-yl]-4H-1,2,4-oxadiazol-5-one]	2840	0.5
O=c1[nH]c(-c2nccnc2Nc2ccc(OC(F)(F)F)cc2Cl)no1 [Example 8, 3-[3-[2-chloro-4-(trifluoromethoxy)anilino]pyrazin-2-yl]-4H-1,2,4-oxadiazol-5-one]	1800	7.5
O=c1[nH]c(-c2ncccc2Nc2ccc(C(F)(F)F)cc2)no1 [Example 9, 3-[3-[4-(trifluoromethyl)anilino]-2-pyridyl]-4H-1,2,4-oxadiazol-5-one]	52	9.2
O=c1[nH]c(-c2cc(C(F)(F)F)cnc2Nc2ccc(C(F)(F)F)cc2)no1 [Example 10, 3-[5-(trifluoromethyl)-2-[4-(trifluoromethyl)anilino]-3-pyridyl]-4H-1,2,4-oxadiazol-5-one]	374	10.1
O=c1[nH]c(-c2c(F)ccnc2Nc2ccc(C(F)(F)F)cc2)no1 [Example 13, 3-[4-fluoro-2-[4-(trifluoromethyl)anilino]-3-pyridyl]-4H-1,2,4-oxadiazol-5-one]	95	10.3
O=c1[nH]c(-c2nccnc2Nc2ccc(OCC3CC3)cc2)no1 [Example 14, 3-[3-[4-(cyclopropylmethoxy)anilino]pyrazin-2-yl]-4H-1,2,4-oxadiazol-5-one]	2770	9
CC(C)(C)c1ccc(Nc2nccnc2-c2noc(=O)[nH]2)cc1 [Example 15, 3-[3-(4-tert-butylanilino)pyrazin-2-yl]-4H-1,2,4-oxadiazol-5-one]	72	11.8
CC(C)c1ccc(Nc2nccnc2-c2noc(=O)[nH]2)cc1 [Example 16, 3-[3-(4-isopropylanilino)pyrazin-2-yl]-4H-1,2,4-oxadiazol-5-one]	552	11.1
O=c1[nH]c(-c2nccnc2Nc2ccc(C(F)(F)F)c(F)c2)no1 [Example 19, 3-[3-[3-fluoro-4-(trifluoromethyl)anilino]pyrazin-2-yl]-4H-1,2,4-oxadiazol-5-one]	131	10.1
O=c1[nH]c(-c2nccnc2Nc2ccc(C(F)(F)F)c(Cl)c2)no1 [Example 20, 3-[3-[3-chloro-4-(trifluoromethyl)anilino]pyrazin-2-yl]-4H-1,2,4-oxadiazol-5-one]	236	10.6
COc1cc(Nc2nccnc2-c2noc(=O)[nH]2)ccc1C(F)(F)F [Example 22, 3-[3-[3-methoxy-4-(trifluoromethyl)anilino]pyrazin-2-yl]-4H-1,2,4-oxadiazol-5-one]	70	6.1
O=c1[nH]c(-c2nccnc2Nc2cnc(C(F)(F)F)nc2)no1 [Example 23, 3-[3-[[2-(trifluoromethyl)pyrimidin-5-yl]amino]pyrazin-2-yl]-4H-1,2,4-oxadiazol-5-one]	64	1.6
O=c1[nH]c(-c2nccnc2Nc2ccc(C(F)(F)F)nc2)no1 [Example 24, 3-[3-[[6-(trifluoromethyl)-3-pyridyl]amino]pyrazin-2-yl]-4H-1,2,4-oxadiazol-5-one]	340	3.4
O=c1[nH]c(-c2nccnc2Nc2ccc(C(F)(F)F)cc2F)no1 [Example 25]	117	9.6
O=C(Nc1ccc(Nc2nccnc2-c2noc(=O)[nH]2)cc1)C1CCC1 [Example 27, N-[4-[[3-(5-oxo-4H-1,2,4-oxadiazol-3-yl)pyrazin-2-yl]amino]phenyl]cyclobutanecarboxamide]	1540	0.4
O=c1[nH]c(-c2nccnc2Nc2ccc(Cl)c(C(F)(F)F)c2)no1 [Example 30, 3-[3-[4-chloro-3-(trifluoromethyl)anilino]pyrazin-2-yl]-4H-1,2,4-oxadiazol-5-one]	4910	5.3
Cc1cnc(Nc2ccc(C(F)(F)F)cc2)c(-c2noc(=O)[nH]2)n1 [Example 32, 3-[6-methyl-3-[4-(trifluoromethyl)anilino]pyrazin-2-yl]-4H-1,2,4-oxadiazol-5-one]	28	10.2
Nc1cc(Nc2nccnc2-c2noc(=O)[nH]2)ccc1C(F)(F)F [Example 33, 3-[3-[3-amino-4-(trifluoromethyl)anilino]pyrazin-2-yl]-4H-1,2,4-oxadiazol-5-one]	127	3.6
Nc1cc(C(F)(F)F)ccc1Nc1nccnc1-c1noc(=O)[nH]1 [Example 34, 3-[3-[2-amino-4-(trifluoromethyl)anilino]pyrazin-2-yl]-4H-1,2,4-oxadiazol-5-one]	2120	0.4

Other lines, results leading:

IC50 [1] [nM]	ΔTm at 7 µM [2] [°C]	SMILES
39	9.9	O=c1[nH]c(-c2cccnc2Nc2ccc(C(F)(F)F)cc2)no1 [Example 1, 3-[2-[4-(trifluoromethyl)anilino]-3-pyridyl]-4H-1,2,4-oxadiazol-5-one]
117	4.5	COc1cnc(Nc2ccc(C(F)(F)F)cc2)c(-c2noc(=O)[nH]2)n1 [Example 5, 3-[6-methoxy-3-[4-(trifluoromethyl)anilino]pyrazin-2-yl]-4H-1,2,4-oxadiazol-5-one]
44	7.5	COc1cnc(-c2noc(=O)[nH]2)c(Nc2ccc(C(F)(F)F)cc2)n1 [Example 12, 3-[5-methoxy-3-[4-(trifluoromethyl)anilino]pyrazin-2-yl]-4H-1,2,4-oxadiazol-5-one]
708	8.7	CCc1ccc(Nc2nccnc2-c2noc(=O)[nH]2)cc1 [Example 17, 3-[3-(4-ethylanilino)pyrazin-2-yl]-4H-1,2,4-oxadiazol-5-one]
828	2.5	O=c1[nH]c(-c2nccnc2Nc2ccc(-c3nccs3)cc2)no1 [Example 18, 3-[3-(4-thiazol-2-ylanilino)pyrazin-2-yl]-4H-1,2,4-oxadiazol-5-one]
102	2.1	COc1cc(C(F)(F)F)ccc1Nc1nccnc1-c1noc(=O)[nH]1 [Example 21, 3-[3-[2-methoxy-4-(trifluoromethyl)anilino]pyrazin-2-yl]-4H-1,2,4-oxadiazol-5-one]
433	9.2	Cc1cc(C)c(-c2noc(=O)[nH]2)c(Nc2ccc(C(F)(F)F)cc2)n1 [Example 26, 3-[4,6-dimethyl-2-[4-(trifluoromethyl)anilino]-3-pyridyl]-4H-1,2,4-oxadiazol-5-one]
557	6.1	Cc1ccnc(Nc2ccc(C(F)(F)F)cc2)c1-c1noc(=O)[nH]1 [Example 28, 3-[4-methyl-2-[4-(trifluoromethyl)anilino]-3-pyridyl]-4H-1,2,4-oxadiazol-5-one]
503	7.3	O=c1[nH]c(-c2nccnc2Nc2ccc(-c3ccccc3)cc2)no1 [Example 29, 3-[3-(4-phenylanilino)pyrazin-2-yl]-4H-1,2,4-oxadiazol-5-one]
35	10.5	Cc1cnc(-c2noc(=O)[nH]2)c(Nc2ccc(C(F)(F)F)cc2)n1 [Example 31, 3-[5-methyl-3-[4-(trifluoromethyl)anilino]pyrazin-2-yl]-4H-1,2,4-oxadiazol-5-one]
